From US20240199605A1, “SMALL MOLECULAR INHIBITORS OF NF-kB INDUCING KINASE” (Janssen Pharmaceutica NV, priority 2019, published 2024) come the findings set out here.

The target of experiment [1] is recombinant human NF-kappaB-inducing kinase (NIK/MAP3K14) (Homo sapiens (Human), UniProt Q99558). Briefly: Inhibition of auto-phosphorylation of recombinant human NIK/MAP3K14 (AlphaScreen). The note with it: NIK auto-phosphorylation, 5 μM ATP, 1 nM NIK, 2 h at 25° C.; average of values. The experiment is classed as biochemical. A digest of the protocol: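 AlphaScreen read-out (anti-phospho-IKK Ser176/180 antibody, Protein A acceptor and glutathione donor beads) of NIK auto-phosphorylation. Reaction: 1 nM enzyme, 5 μM ATP, Tris pH 7.5 buffer with Mg2+ and vanadate, 2 h at 25° C., final DMSO 0.7%. IC50 came from a sigmoidal curve fit.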
Sequence of recombinant human NF-kappaB-inducing kinase (NIK/MAP3K14) (Q99558 whole entry): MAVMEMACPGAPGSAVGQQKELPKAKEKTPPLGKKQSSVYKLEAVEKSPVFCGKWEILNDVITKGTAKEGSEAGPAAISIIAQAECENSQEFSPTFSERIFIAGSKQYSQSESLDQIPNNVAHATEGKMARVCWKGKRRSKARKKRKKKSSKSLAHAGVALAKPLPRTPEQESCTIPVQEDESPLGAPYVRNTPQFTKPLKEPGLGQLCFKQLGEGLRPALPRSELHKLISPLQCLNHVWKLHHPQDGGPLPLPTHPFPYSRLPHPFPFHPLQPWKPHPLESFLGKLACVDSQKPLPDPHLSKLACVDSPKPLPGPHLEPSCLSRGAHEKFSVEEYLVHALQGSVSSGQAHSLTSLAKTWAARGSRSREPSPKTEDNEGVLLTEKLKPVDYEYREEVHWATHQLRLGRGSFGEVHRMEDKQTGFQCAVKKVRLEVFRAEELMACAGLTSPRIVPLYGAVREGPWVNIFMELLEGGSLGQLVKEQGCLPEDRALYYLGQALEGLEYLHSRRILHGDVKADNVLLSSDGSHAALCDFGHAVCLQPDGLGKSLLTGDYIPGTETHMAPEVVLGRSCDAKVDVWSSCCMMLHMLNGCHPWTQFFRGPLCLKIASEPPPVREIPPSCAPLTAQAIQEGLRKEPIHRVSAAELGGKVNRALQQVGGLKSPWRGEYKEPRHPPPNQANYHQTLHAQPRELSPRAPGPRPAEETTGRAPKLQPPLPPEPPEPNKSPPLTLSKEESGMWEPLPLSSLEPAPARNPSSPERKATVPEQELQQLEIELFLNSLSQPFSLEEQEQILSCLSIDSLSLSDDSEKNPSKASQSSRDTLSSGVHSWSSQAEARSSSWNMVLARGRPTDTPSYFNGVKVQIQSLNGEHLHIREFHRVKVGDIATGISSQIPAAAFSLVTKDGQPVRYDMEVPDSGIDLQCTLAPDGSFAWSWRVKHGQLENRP
(In general: Bead proximity is the source of the signal in Alpha formats.)

For experiment [2], the system named is p-IKKα levels in L363 (NIK translocated multiple myeloma) cells. Kind of experiment: Effect of compounds on p-IKKα levels in L363 cells (AlphaLISA SureFire Ultra). The experiment is classed as cell-based, human. The note with it: Homo sapiens, L-363, 6 h, BAFF stimulated, MG132, 6 h, average of values, read-out: Assay 2 IC50. A digest of the protocol: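 Inhibition of p-IKKα (Ser176/180) read by AlphaLISA after 6 h, 37 °C compound exposure (11-point 1:3 series, 0.3% DMSO) of L363 cells pre-incubated overnight ± 250 ng/ml BAFF and plated ± BAFF ± 10 μM MG132. Normalised to BAFF/MG132/DMSO and unstimulated controls; IC50 by sigmoidal fitting, duplicates.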

Broadly, the IC50 is the concentration at which inhibition is half-maximal. In the case of `[2H]c1nc(N)c2nc(-c3cccc(C#C[C@@]4(O)C(=O)N(C)[C@@H]5C[C@@H]54)c3)ccc2n1` [Example 276, (1R,4R,5S)-4-((3-(4-Aminopyrido[3,2-d]pyrimidin-6-yl-2-d)phenyl)ethynyl)-4-hydroxy-2-methyl-2-azabicyclo[3.1.0]hexan-3-one], the IC50 in experiment [1] is ≤ 0.5 nM; in experiment [2] it was 8.9 nM.

In the case of `[2H]c1nc(N)c2nc(-c3cccc(C#C[C@]4(O)CCN(C)C4=O)c3)cc(C3CCCC3)c2n1` [Example 277, (R)-3-((3-(4-Amino-8-cyclopentylpyrido[3,2-d]pyrimidin-6-yl-2-d)phenyl)ethynyl)-3-hydroxy-1-methylpyrrolidin-2-one], the IC50 in experiment [1] worked out at 0.7 nM; in experiment [2] it was 13 nM.

For `CN1CC[C@@](O)(C#Cc2cccc(-c3ccc4ncnc(C(F)(F)F)c4n3)c2)C1=O` [Example 278, (R)-3-Hydroxy-1-methyl-3-((3-(4-(trifluoromethyl)pyrido[3,2-d]pyrimidin-6-yl)phenyl)ethynyl)pyrrolidin-2-one], the IC50 in experiment [1] is 170 nM; in experiment [2] it was > 5000 nM.

As for `CN1CC[C@@](O)(C#Cc2cccc(-c3ccc4ncnc(C#N)c4n3)c2)C1=O` [Example 279, (R)-6-(3-((3-Hydroxy-1-methyl-2-oxopyrrolidin-3-yl)ethynyl)phenyl)pyrido[3,2-d]pyrimidine-4-carbonitrile], the IC50 in experiment [1] is 1510 nM; in experiment [2], > 5000 nM.

As for `Cc1nccc2ccc(-c3cccc(C#C[C@]4(O)CCN(C)C4=O)c3)nc12` [Example 280, (R)-3-Hydroxy-1-methyl-3-((3-(8-methyl-1,7-naphthyridin-2-yl)phenyl)ethynyl)pyrrolidin-2-one], the IC50 in experiment [1] is 45 nM; in experiment [2], 720 nM.

As to `Cc1cc(-c2cccc(C#C[C@@]3(O)C(=O)N(C)[C@@H]4C[C@@H]43)c2)nc2c(N)ncnc12` [Example 281, (1R,4R,5S)-4-((3-(4-Amino-8-methylpyrido[3,2-d]pyrimidin-6-yl)phenyl)ethynyl)-4-hydroxy-2-methyl-2-azabicyclo[3.1.0]hexan-3-one], the IC50 in experiment [1] was 0.9 nM; in experiment [2], 7.7 nM.

Turning to `[2H]c1nc(N)c2nc(-c3cccc(C#C[C@]4(O)CCN(C)C4=O)c3)cc(CN)c2n1` [Example 282, (R)-3-((3-(4-Amino-8-(aminomethyl)pyrido[3,2-d]pyrimidin-6-yl-2-d)phenyl)ethynyl)-3-hydroxy-1-methylpyrrolidin-2-one], the IC50 came to 5.6 nM in experiment [1] and 205 nM in experiment [2].

On to `[2H]c1nc(N)c2nc(-c3cccc(C#C[C@]4(O)CCN(C)C4=O)c3)cc(C(C)C)c2n1` [Example 283, (R)-3-((3-(4-Amino-8-isopropylpyrido[3,2-d]pyrimidin-6-yl-2-d)phenyl)ethynyl)-3-hydroxy-1-methylpyrrolidin-2-one], for which the IC50 in experiment [1] came to 0.6 nM; in experiment [2], 1.4 nM.

For `CN1CC[C@@](O)(C#Cc2cccc(-c3cc(C(F)(F)F)c4ncnc(N)c4n3)c2)C1=O` [Example 284, (R)-3-((3-(4-Amino-8-(trifluoromethyl)pyrido[3,2-d]pyrimidin-6-yl)phenyl)ethynyl)-3-hydroxy-1-methylpyrrolidin-2-one], the IC50 was determined as 0.7 nM in experiment [1] and 2.8 nM in experiment [2].

On to `Cc1nc(N)c2nc(-c3cccc(C#C[C@]4(O)CCN(C)C4=O)c3)cc(C)c2n1` [Example 285, (R)-3-((3-(4-Amino-2,8-dimethylpyrido[3,2-d]pyrimidin-6-yl)phenyl)ethynyl)-3-hydroxy-1-methylpyrrolidin-2-one], for which the IC50 was 1.7 nM in experiment [1] and 12 nM in experiment [2].

`[2H]C([2H])([2H])c1cc(-c2cccc(C#C[C@]3(O)CCN(C)C3=O)c2)nc2c(N)ncnc12` [Example 286, (R)-3-((3-(4-Amino-8-(methyl-da)pyrido[3,2-d]pyrimidin-6-yl)phenyl)ethynyl)-3-hydroxy-1-methylpyrrolidin-2-one]: the figures for the IC50 in experiment [1] and in experiment [2] were 0.9 nM and 3.1 nM, respectively.

For the compound `[2H]c1nc(N)c2nc(-c3cccc(C#C[C@]4(O)CCN(C)C4=O)c3)cc(C3CCNCC3)c2n1` [Example 287, (R)-3-((3-(4-Amino-8-(piperidin-4-yl)pyrido[3,2-d]pyrimidin-6-yl-2-d)phenyl)ethynyl)-3-hydroxy-1-methylpyrrolidin-2-one], the IC50 in experiment [1] is 44 nM; in experiment [2], > 5000 nM.

Regarding `CN1CC[C@@](O)(C#Cc2cccc(-c3ccc4nc(F)nc(N)c4n3)c2)C1=O` [Example 288, (R)-3-((3-(4-Amino-2-fluoropyrido[3,2-d]pyrimidin-6-yl)phenyl)ethynyl)-3-hydroxy-1-methylpyrrolidin-2-one], the IC50 in experiment [1] was 0.9 nM; in experiment [2], 16 nM.

For the compound `CN1CC[C@@](O)(C#Cc2cccc(-c3cc(N(C)C)c4ncnc(N)c4n3)c2)C1=O` [Example 295, (R)-3-[2-[3-[4-Amino-8-(dimethylamino)pyrido[3,2-d]pyrimidin-6-yl]phenyl]ethynyl]-3-hydroxy-1-methyl-pyrrolidin-2-one], the IC50 in experiment [1] was 3.1 nM; in experiment [2], 18 nM.

As for `CNc1cc(-c2cccc(C#C[C@]3(O)CCN(C)C3=O)c2)nc2c(N)ncnc12` [Example 296, (R)-3-[2-[3-[4-Amino-8-(methylamino)pyrido[3,2-d]pyrimidin-6-yl]phenyl]ethynyl]-3-hydroxy-1-methyl-pyrrolidin-2-one], the values for the IC50 in experiment [1] and in experiment [2] were ≤ 0.5 nM and 6.9 nM, respectively.

As to `CC(C)Nc1cc(-c2cccc(C#C[C@]3(O)CCN(C)C3=O)c2)nc2c(N)ncnc12` [Example 297, (R)-3-[2-[3-[4-Amino-8-(isopropylamino)pyrido[3,2-d]pyrimidin-6-yl]phenyl]ethynyl]-3-hydroxy-1-methyl-pyrrolidin-2-one], the IC50 in experiment [1] was 1.9 nM; in experiment [2], 31 nM.

For `CN1CC[C@@](O)(C#Cc2cccc(-c3cc(NC4CC4)c4ncnc(N)c4n3)c2)C1=O` [Example 298, (R)-3-[2-[3-[4-Amino-8-(cyclopropylamino)pyrido[3,2-d]pyrimidin-6-yl]phenyl]ethynyl]-3-hydroxy-1-methyl-pyrrolidin-2-one], the values for the IC50 in experiment [1] and in experiment [2] were 0.8 nM and 24 nM, respectively.

Regarding `CN1CC[C@@](O)(C#Cc2cccc(-c3cc(OC(F)F)c4ncnc(N)c4n3)c2)C1=O` [Example 299, (R)-3-[2-[3-[4-Amino-8-(difluoromethoxy)pyrido[3,2-d]pyrimidin-6-yl]phenyl]ethynyl]-3-hydroxy-1-methyl-pyrrolidin-2-one], the values for the IC50 in experiment [1] and in experiment [2] were 1.7 nM and 12 nM, respectively.

For the compound `CN1CC[C@@](O)(C#Cc2cccc(-c3cc(N4CC(F)(F)C4)c4ncnc(N)c4n3)c2)C1=O` [Example 300, (R)-3-[2-[3-[4-Amino-8-(3,3-difluoroazetidin-1-yl)pyrido[3,2-d]pyrimidin-6-yl]phenyl]ethynyl]-3-hydroxy-1-methyl-pyrrolidin-2-one], the IC50 is 1.2 nM in experiment [1] and 39 nM in experiment [2].

For `Cc1ccc(C#C[C@]2(O)CCN(C)C2=O)cc1-c1nc(C)c2ncnc(N)c2n1` [Example 301, (R)-3-[2-[3-(8-Amino-4-methyl-pyrimido[5,4-d]pyrimidin-2-yl)-4-methyl-phenyl]ethynyl]-3-hydroxy-1-methyl-pyrrolidin-2-one], the IC50 in experiment [1] is 4.5 nM; in experiment [2], 48 nM.

As for `CN1CC[C@@](O)(C#Cc2cccc(-c3cc(C4CC4)c4ncnc(N)c4n3)c2)C1=O` [Example 302, (R)-3-((3-(4-Amino-8-cyclopropylpyrido[3,2-d]pyrimidin-6-yl)phenyl)ethynyl)-3-hydroxy-1-methylpyrrolidin-2-one], the IC50 in experiment [1] is ≤ 0.5 nM; in experiment [2] it was 4.5 nM.

For `CN1CC[C@@](O)(C#Cc2cccc(-c3cc(-n4cccn4)c4ncnc(N)c4n3)c2)C1=O` [Example 303, (R)-3-[2-[3-(4-Amino-8-pyrazol-1-yl-pyrido[3,2-d]pyrimidin-6-yl)phenyl]ethynyl]-3-hydroxy-1-methyl-pyrrolidin-2-one], the IC50 in experiment [1] came to 0.9 nM; in experiment [2] it was 11 nM.

As for `CN1CC[C@@](O)(C#Cc2cccc(-c3cc(OC4CC4)c4ncnc(N)c4n3)c2)C1=O` [Example 304, (R)-3-[2-[3-[4-Amino-8-(cyclopropoxy)pyrido[3,2-d]pyrimidin-6-yl]phenyl]ethynyl]-3-hydroxy-1-methyl-pyrrolidin-2-one], the IC50 in experiment [1] came out at 0.6 nM; in experiment [2], 15 nM.

With `CN1CC[C@@](O)(C#Cc2cccc(-c3cc(Oc4cnn(C(F)F)c4)c4ncnc(N)c4n3)c2)C1=O` [Example 305, (R)-3-[2-[3-[4-Amino-8-[1-(difluoromethyl)pyrazol-4-yl]oxy-pyrido[3,2-d]pyrimidin-6-yl]phenyl]ethynyl]-3-hydroxy-1-methyl-pyrrolidin-2-one], the IC50 was determined as 2.2 nM in experiment [1] and 64 nM in experiment [2].

Regarding `CN1CC[C@@](O)(C#Cc2cccc(-c3cc(OCCC(F)(F)F)c4ncnc(N)c4n3)c2)C1=O` [Example 306, (R)-3-[2-[3-[4-Amino-8-(3,3,3-trifluoropropoxy)pyrido[3,2-d]pyrimidin-6-yl]phenyl]ethynyl]-3-hydroxy-1-methyl-pyrrolidin-2-one], the IC50 in experiment [1] is 1.9 nM; in experiment [2], 26 nM.
